Measured values as given in patent US20210292755A1, “NOVEL DOUBLE-STRANDED OLIGONUCLEOTIDES FOR THE TREATMENT OF CANCER” (SELEXEL, priority 2016, published 2021).

Tests used:
[1] = test system: 22RV1 human prostatic tumor; assay: Subcutaneous tumor volume in mice; assay type: in vivo; conditions: twice a week
Protocol: Tumors are obtained by subcutaneous injection of tumor cells into the flank of Nude mice. Only animals on which tumor uptake is found are included in the study and randomized to receive treatment or control treatment.
When indicated, the continuous administration of siRNA is carried out by implantation of an Alzet osmotic pump subcutaneously on the back of the mice, on the opposite side to the tumor when the mice wear one. The concentration of siRNA in the pump is adjusted to deliver the indicated amount in mg/kg/day taking into account the pump flow rate indicated by the manufacturer.
The subcutaneous tumors volume is estimated by measuring with a calliper the largest (D), the smallest (d) diameter of the tumors and their height (h). The volume is calculated by the formula V=D×d×h×Pi/6.

γH2AX = assay: Indirect immunofluorescence of γH2AX, bleomycin-treated transfected cells; assay type: cell-based, human
Protocol: (§1) FIG. 8: Immuno detection of γH2AX (first column) and 53BP1 (second column) in C4-2 cells treated for 6 h with bleomycin ([…]) or the vehicle added 72 h after transfection of cells by a control siRNA (Cont), siAR7 siRNA, or siARH2AX-1.
(§2) All the cells used in the following examples are human cells and express H2AX.
(§3) The cells are cultured in DMEM or RPMI supplemented with 10% fetal calf serum, or as recommended by the ATCC. When indicated, they are transfected with siRNA using lipofectamine (Life Technologies), following the supplier's protocol. The number of living cells after the indicated treatments was quantified by measuring their metabolic activity by the WST1 test according to the supplier's indications (Roche).
(§4) The effect of siRNA transfection and/or treatments by different chemotherapeutic agents on gene expression was measured: • by RT-qPCR quantification of mRNAs extracted by a conventional phenol-chloroform method (Trizol). The amount of RNA was normalized by measuring the cyclophilin A-encoding mRNA which is not regulated by AR (delta delta CT method). • by Western blotting on protein extracts. The antibodies used are: AR: Santacruz, N-20 sc-816; H2AX: Merck Millipore ref 07-627; Tubulin: Sigma T6199; Actin: Merck Millipore MAB 1501; γH2AX: Merck Millipore 05-636. […] The antibodies used are the following: γH2AX: Merck Millipore 05-636; 53BP1: Novus, NB 100-304.
(§5) In the experiment shown in FIG. 8, C4-2 cells were transfected with a control or siARH2AX-1 siRNA. 72 hours after transfection, the cells were then treated for 6 hours with […] of bleomycin or the corresponding vehicle.

53BP1 = assay: Indirect immunofluorescence of 53BP1, bleomycin-treated transfected cells; assay type: cell-based, human; conditions: C4-2 cells transfected with Cont siRNA, 6 hours with 10 μl of bleomycin
Protocol: as §1, §2, §3, §4, §5

C4-2 cells = assay: WST1 cell viability test; assay type: cell-based, human
Protocol: as §2, §3

MDA MB231 cells = assay: WST1 cell viability test; assay type: cell-based, human; conditions: for cell viability, siRNA combined with etoposide: 40 μl of etoposide added 24 hours after transfection, WST1 48 h later
Protocol: as §2, §3

AR-encoding mRNA = assay: RT-qPCR of AR-encoding mRNA after siRNA transfection; assay type: cell-based, human; conditions: for AR mRNA expression: both lines
Protocol: as §2, §3, §4

H2AX-encoding mRNA = assay: RT-qPCR of H2AX-encoding mRNA after siRNA transfection; assay type: cell-based, human; conditions: for H2AX mRNA expression: both lines
Protocol: as §2, §3, §4

LNCaP cells = assay: WST1 cell viability test; assay type: cell-based, human; conditions: 72 hr after transfection
Protocol: as §2, §3

PSA-encoding mRNA = assay: RT-qPCR of PSA-encoding mRNA after siRNA transfection; assay type: cell-based, human; conditions: LNCaP or C4-2 cells, both lines, 72 hours after transfection
Protocol: as §2, §3, §4
In the experiment shown in FIG. 4, the LNCaP or C4-2 tumor cells were transfected with the following siRNAs: Cont, siAR7 or siARH2AX-1.

22RV1 cells = assay: WST1 cell viability test; assay type: cell-based, human; conditions: 72 hr after transfection
Protocol: as §2, §3

WM266-4 cells = assay: WST1 cell viability test; assay type: cell-based, human; conditions: for cell viability, siRNA combined with etoposide: 40 μl of etoposide added 24 hours after transfection, WST1 48 h later
Protocol: as §2, §3

AR = assay: Western blot of AR after siRNA transfection; assay type: cell-based, human; conditions: C4-2 cells, 72 h after transfection
Protocol: as §2, §3, §4

MDA MB-453 cells = assay: WST1 cell viability test; assay type: cell-based, human; conditions: 72 hr after transfection
Protocol: as §2, §3

U87 cells = assay: WST1 cell viability test; assay type: cell-based, human; conditions: 72 hr after transfection
Protocol: as §2, §3

H2AX = assay: Western blot of H2AX after siRNA transfection; assay type: cell-based, human; conditions: C4-2 cells, 72 h after transfection
Protocol: as §2, §3, §4

[2] = C4-2 cells, 48 hours after transfection, relative to control siRNA
[3] = LNCaP or C4-2 cells, 72 hours after transfection
[4] = LNCaP or MDA MB-453 cells, 72 h after transfection

Compound: COc1cc([C@@H]2c3cc4c(cc3[C@@H](O[C@@H]3O[C@@H]5CO[C@@H](C)O[C@H]5[C@H](O)[C@H]3O)[C@H]3COC(=O)[C@H]23)OCO4)cc(OC)c1O [etoposide]
- tumor development ([1]; etoposide 5 mg/kg intraperitoneal): only slightly inhibits tumor development
- tumor development ([1]; etoposide 15 mg/kg intraperitoneal): produces an inhibition

Compound: bleomycin
- expression of γH2AX (γH2AX; C4-2 cells transfected with Cont siRNA, 6 hours with 10 μl of bleomycin): strongly increases
- 53BP1 labeling (53BP1): becomes punctiforme

Compound: siAR2: siRNA inhibiting AR described in PCT/FR2002/003843, SEQ ID NO 9 and SEQ ID NO 10 (chain 1 GACUCAGCUGCCCCAUCCACGNN; chain 2 CGUGGAUGGGGCAGCUGAGUCNN; chemistry not fully specified)
- cell viability (C4-2 cells; 90 hours after transfection): only marginally
- cell viability, siRNA combined with bleomycin (C4-2 cells; bleomycin (10 μM) added 48 hours after transfection, read 48 hours later, versus chemotherapeutic agent alone): does not produce a significantly greater viability-inhibiting effect
- cell viability, siRNA combined with etoposide (C4-2 cells; etoposide (10 μM) added 48 hours after transfection, read 48 hours later, versus chemotherapeutic agent alone): does not produce a significantly greater viability-inhibiting effect
- cell viability (MDA MB231 cells; 90 hours after transfection): only marginally
- AR expression (mRNA) (AR-encoding mRNA; [2]): inhibit AR expression in a similar manner
- H2AX expression (mRNA) (H2AX-encoding mRNA; [2]): considerably less effective at inhibiting the expression of H2AX

Compound: siAR7: siRNA hybridizing with a sequence of the 7th exon of AR, not H2AX; SEQ ID NO 13 and 14 (chain 1 AAUGAUACGAUCGAGUUCCNN; chain 2 GGAACUCGAUCGUAUCAUUNN; chemistry not fully specified)
- cell viability / proliferation (C4-2 cells; 72 hr after transfection): inhibit the proliferation
- cell viability / proliferation (LNCaP cells): inhibit the proliferation
- γH2AX labeling after bleomycin (γH2AX; siRNA-transfected C4-2 cells, 72 hours after transfection, bleomycin 6 hours): increase in γH2AX labeling
- AR mRNA expression (AR-encoding mRNA; [3]): inhibit the expression of AR and PSA
- PSA mRNA expression (PSA-encoding mRNA): inhibit the expression of AR and PSA
- H2AX mRNA expression (H2AX-encoding mRNA; [3]): only siARH2AX-1 also inhibits the expression of H2AX

Compound: siARh: siRNA hybridizing with a sequence of the first exon of AR, not H2AX; SEQ ID NO 11 and 12 (chain 1 UCCCCAAGCCCAUCGUAGANN; chain 2 UCUACGAUGGGCUUGGGGANN; chemistry not fully specified)
- cell viability / proliferation (22RV1 cells): inhibit the proliferation
- cell viability, siRNA combined with etoposide (WM266-4 cells): no amplification of the effects of etoposide
- cell viability, siRNA combined with etoposide (MDA MB231 cells): no amplification of the effects of etoposide
- AR protein expression (AR): inhibits AR
- AR mRNA expression (AR-encoding mRNA; [4]): inhibits AR

Compound: siH2AX: siRNA hybridizing with H2AX mRNA but not with that of AR; SEQ ID NO 15 and 16 (chain 1 CUGGAAUUCUGCAGCUAACNN; chain 2 GUUAGCUGCAGAAUUCCAGNN; chemistry not fully specified)
- cell viability / proliferation (22RV1 cells): has little effect on cell proliferation
- cell viability / proliferation (MDA MB-453 cells): has little effect on cell proliferation
- cell viability / proliferation (U87 cells): has little effect on cell proliferation
- cell viability, siRNA combined with etoposide (WM266-4 cells): no amplification of the effects of etoposide
- cell viability / proliferation (WM266-4 cells; 72 hr after transfection): has little effect on cell proliferation
- cell viability, siRNA combined with etoposide (MDA MB231 cells): no amplification of the effects of etoposide
- cell viability / proliferation (MDA MB231 cells; 72 hr after transfection): has little effect on cell proliferation
- H2AX protein expression (H2AX): inhibits H2AX
- H2AX mRNA expression (H2AX-encoding mRNA; [4]): inhibits H2AX
